Source: patent US20080063668A1, “Nitroimidazole and terconazole composition and method” (priority 2006, published 2008)

Assays:
Test in all cases: Inhibition of bacteria growth, drug dilution tubes, anaerobic
Type in all cases: cell-based
Design in all cases: key: (+) for growth; (−) for no growth; (±) for suboptimal growth after an initial observation of growth
[1] = system: Mobiluncus curtisii var. holmesii ATCC 35242
Description: (§1) Serial dilutions of tinidazole and terconazole were prepared by adding measured amounts of each substance to water (both individually and in combination). Seven bacterial organisms that are common pathogens in bacterial vaginosis were grown anaerobically in the medium as listed in Table 4 under a N2/H2/CO2 (85:5:10) head space atmosphere. [table] These cultures were diluted to a 0.5 McFarland standard prior to inoculation of drug dilution tubes. One (1) mL of the 0.5 McFarland preparation was inoculated to an anaerobically prepared test tube containing 0.8 mL of Difco anaerobic medium (DAMM) and 0.2 mL of appropriate diluted antimicrobial or antimicrobial combination for a total of 2 mL. The inoculated tubes were then incubated at 37° C. and monitored daily for growth. Growth was scored with a (+) for growth, (−) for no growth, and (±) for suboptimal growth after an initial observation of growth. Tinidazole is abbreviated as TNZ and terconazole is abbreviated as TER in Tables 5 through 11.

[2] = system: Bacteroides fragilis ATCC 25285
Description: as §1

[3] = system: Mobiluncus curtisii var. curtisii ATCC 35241
Description: as §1

Measured: growth

CCS(=O)(=O)CCn1c([N+](=O)[O-])cnc1C [TNZ, 1-[2-(ethylsulfonyl)ethyl]-2-methyl-5-nitroimidazole]
(−): [2]; TNZ 2 μg/ml, DAY 1 | [2]; TNZ 2 μg/ml, DAY 2 | [2]; TNZ 2 μg/ml, DAY 3 | [2]; TNZ 2 μg/ml, DAY 4 | [2]; TNZ 3.9 μg/ml, DAY 1 | [2]; TNZ 3.9 μg/ml, DAY 2 | [2]; TNZ 3.9 μg/ml, DAY 3 | [2]; TNZ 3.9 μg/ml, DAY 4 | [2]; TNZ 3.9 μg/ml, DAY 5 | [2]; TNZ 7.8 μg/ml, DAY 1 | [2]; TNZ 7.8 μg/ml, DAY 2 | [2]; TNZ 7.8 μg/ml, DAY 3 | [2]; TNZ 7.8 μg/ml, DAY 4 | [2]; TNZ 7.8 μg/ml, DAY 5 | [2]; TNZ 15.6 μg/ml, DAY 1 | [2]; TNZ 15.6 μg/ml, DAY 2 | [2]; TNZ 15.6 μg/ml, DAY 3 | [2]; TNZ 15.6 μg/ml, DAY 4 | [2]; TNZ 15.6 μg/ml, DAY 5 | [2]; TNZ 31.3 μg/ml, DAY 1 | [2]; TNZ 31.3 μg/ml, DAY 2 | [2]; TNZ 31.3 μg/ml, DAY 3 | [2]; TNZ 31.3 μg/ml, DAY 4 | [2]; TNZ 31.3 μg/ml, DAY 5 | [2]; TNZ 62.5 μg/ml, DAY 1 | [2]; TNZ 62.5 μg/ml, DAY 2 | [2]; TNZ 62.5 μg/ml, DAY 3 | [2]; TNZ 62.5 μg/ml, DAY 4 | [2]; TNZ 62.5 μg/ml, DAY 5 | [2]; TNZ 125 μg/ml, DAY 1 | [2]; TNZ 125 μg/ml, DAY 2 | [2]; TNZ 125 μg/ml, DAY 3 | [2]; TNZ 125 μg/ml, DAY 4 | [2]; TNZ 125 μg/ml, DAY 5 | [2]; TNZ 250 μg/ml, DAY 1 | [2]; TNZ 250 μg/ml, DAY 2 | [2]; TNZ 250 μg/ml, DAY 3 | [2]; TNZ 250 μg/ml, DAY 4 | [2]; TNZ 250 μg/ml, DAY 5 | [2]; TNZ 500 μg/ml, DAY 1 | [2]; TNZ 500 μg/ml, DAY 2 | [2]; TNZ 500 μg/ml, DAY 3 | [2]; TNZ 500 μg/ml, DAY 4 | [2]; TNZ 500 μg/ml, DAY 5 | [3]; TNZ 250 μg/ml, DAY 1 | [3]; TNZ 500 μg/ml, DAY 1 | [3]; TNZ 500 μg/ml, DAY 2 | [3]; TNZ 500 μg/ml, DAY 3 | [3]; TNZ 500 μg/ml, DAY 4
(+): [1]; TNZ 2 μg/ml, DAY 1 | [1]; TNZ 2 μg/ml, DAY 2 | [1]; TNZ 2 μg/ml, DAY 3 | [1]; TNZ 2 μg/ml, DAY 4 | [1]; TNZ 2 μg/ml, DAY 5 | [1]; TNZ 3.9 μg/ml, DAY 1 | [1]; TNZ 3.9 μg/ml, DAY 2 | [1]; TNZ 3.9 μg/ml, DAY 3 | [1]; TNZ 3.9 μg/ml, DAY 4 | [1]; TNZ 3.9 μg/ml, DAY 5 | [1]; TNZ 7.8 μg/ml, DAY 1 | [1]; TNZ 7.8 μg/ml, DAY 2 | [1]; TNZ 7.8 μg/ml, DAY 3 | [1]; TNZ 7.8 μg/ml, DAY 4 | [1]; TNZ 7.8 μg/ml, DAY 5 | [1]; TNZ 15.6 μg/ml, DAY 1 | [1]; TNZ 15.6 μg/ml, DAY 2 | [1]; TNZ 15.6 μg/ml, DAY 3 | [1]; TNZ 15.6 μg/ml, DAY 4 | [1]; TNZ 15.6 μg/ml, DAY 5 | [1]; TNZ 31.3 μg/ml, DAY 1 | [1]; TNZ 31.3 μg/ml, DAY 2 | [1]; TNZ 31.3 μg/ml, DAY 3 | [1]; TNZ 31.3 μg/ml, DAY 4 | [1]; TNZ 31.3 μg/ml, DAY 5 | [1]; TNZ 62.5 μg/ml, DAY 1 | [1]; TNZ 62.5 μg/ml, DAY 2 | [1]; TNZ 62.5 μg/ml, DAY 3 | [1]; TNZ 62.5 μg/ml, DAY 4 | [1]; TNZ 62.5 μg/ml, DAY 5 | [1]; TNZ 125 μg/ml, DAY 1 | [1]; TNZ 125 μg/ml, DAY 2 | [1]; TNZ 125 μg/ml, DAY 3 | [1]; TNZ 125 μg/ml, DAY 4 | [1]; TNZ 125 μg/ml, DAY 5 | [1]; TNZ 250 μg/ml, DAY 1 | [1]; TNZ 250 μg/ml, DAY 2 | [1]; TNZ 250 μg/ml, DAY 3 | [1]; TNZ 250 μg/ml, DAY 4 | [1]; TNZ 250 μg/ml, DAY 5 | [1]; TNZ 500 μg/ml, DAY 1 | [1]; TNZ 500 μg/ml, DAY 2 | [1]; TNZ 500 μg/ml, DAY 3 | [1]; TNZ 500 μg/ml, DAY 4 | [1]; TNZ 500 μg/ml, DAY 5 | [2]; TNZ 2 μg/ml, DAY 5 | [3]; TNZ 2 μg/ml, DAY 1 | [3]; TNZ 2 μg/ml, DAY 2 | [3]; TNZ 2 μg/ml, DAY 3 | [3]; TNZ 2 μg/ml, DAY 4 | [3]; TNZ 2 μg/ml, DAY 5 | [3]; TNZ 3.9 μg/ml, DAY 1 | [3]; TNZ 3.9 μg/ml, DAY 2 | [3]; TNZ 3.9 μg/ml, DAY 3 | [3]; TNZ 3.9 μg/ml, DAY 4 | [3]; TNZ 3.9 μg/ml, DAY 5 | [3]; TNZ 7.8 μg/ml, DAY 1 | [3]; TNZ 7.8 μg/ml, DAY 2 | [3]; TNZ 7.8 μg/ml, DAY 3 | [3]; TNZ 7.8 μg/ml, DAY 4 | [3]; TNZ 7.8 μg/ml, DAY 5 | [3]; TNZ 15.6 μg/ml, DAY 1 | [3]; TNZ 15.6 μg/ml, DAY 2 | [3]; TNZ 15.6 μg/ml, DAY 3 | [3]; TNZ 15.6 μg/ml, DAY 4 | [3]; TNZ 15.6 μg/ml, DAY 5 | [3]; TNZ 31.3 μg/ml, DAY 1 | [3]; TNZ 31.3 μg/ml, DAY 2 | [3]; TNZ 31.3 μg/ml, DAY 3 | [3]; TNZ 31.3 μg/ml, DAY 4 | [3]; TNZ 31.3 μg/ml, DAY 5 | [3]; TNZ 62.5 μg/ml, DAY 1 | [3]; TNZ 62.5 μg/ml, DAY 2 | [3]; TNZ 62.5 μg/ml, DAY 3 | [3]; TNZ 62.5 μg/ml, DAY 4 | [3]; TNZ 62.5 μg/ml, DAY 5 | [3]; TNZ 125 μg/ml, DAY 1 | [3]; TNZ 125 μg/ml, DAY 2 | [3]; TNZ 125 μg/ml, DAY 3 | [3]; TNZ 125 μg/ml, DAY 4 | [3]; TNZ 125 μg/ml, DAY 5 | [3]; TNZ 250 μg/ml, DAY 2 | [3]; TNZ 250 μg/ml, DAY 3 | [3]; TNZ 250 μg/ml, DAY 4 | [3]; TNZ 250 μg/ml, DAY 5 | [3]; TNZ 500 μg/ml, DAY 5
